Where “and” joins values, the source holds several entries; their conditions need not be identical. Equal values may be shown once. Read-outs that look alike come from different tables or passages of the source.
Tests used:
[1] = test system: SiHa cells; test: IC50 assay (inhibition of proliferation, 4 h exposure, SRB); conditions: SiHa; for IC50: Homo sapiens, 4 h
Method in brief: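 Cells exposed to compound for 4 h in titrated medium, then washed and regrown 5 days under standard conditions (oxia, pHe 7.4). Growth read by sulforhodamine B staining; IC50 from 4-parameter logistic regression of duplicate cultures.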

[2] = test system: SiHa cells; test: Cellular uptake in stirred aerobic single cell suspensions (HPLC, 3H-mannitol correction); conditions: for Observed Ci/Ce ratio: SiHa
Procedure: In these experiments, cell pellets were collected by centrifugation and ^3H-mannitol was used as a cell-excluded marker to enable correction for the entrapped extracellular medium.
Log-phase cultures were dissociated with trypsin/EDTA, followed by the addition of the medium with DNAase I (Sigma DN-25) at 100 μg/mL for 5 min at 37 °C to minimize clumping. The cell pellets were collected by centrifugation and resuspended in αMEM with 5% FBS at pH 7.4 or 6.5 to 2 × 10^6 cells/mL. Samples (12 mL) were equilibrated with magnetic stirring at 37 °C under flowing humidified 5% CO2/air or N2 (50–100 mL/min), as previously described [86]. After equilibration for 60 min, the compounds were added in 50 μL of DMSO. The samples (5 mL) were withdrawn 5 and 60 min later, where the cell pellets were then collected by centrifugation and 4 mL of the supernatant was discarded. The pellets were resuspended in the remaining 1 mL, transferred to microcentrifuge tubes containing 7 μL ^3H-mannitol (740 GBq/mmol, American Radiolabeled Chemicals Inc., St. Louis, MO) as an extracellular marker, and then centrifuged (11,000g × 30s). The supernatant was removed and frozen at −80 °C (extracellular samples) and the tubes were centrifuged again, and any remaining medium was carefully removed. Ice-cold MeOH (80 μL) was added to the pellets which were disrupted by pipetting and stored at −80 °C (intracellular samples). When these were thawed for HPLC analysis (Section 4.12), the volume of extracellular water trapped in the pellets was determined by the scintillation counting (PerkinElmer Tri-Carb B2910TR Liquid Scintillation) of 25 μL of each extracellular and intracellular sample in 3 mL of Emulsifier-Safe™ scintillation cocktail (PerkinElmer). The extracellular volume in each intracellular sample was used to correct the intracellular drug concentration as previously described [87].
The samples were analyzed using an Agilent 1200 HPLC with a diode array absorbance detector and autosampler maintained at 4 °C (Agilent Technologies). The frozen samples were thawed, then centrifuged (11,000g × 5 min), and then extracellular samples were injected directly (typically 20 μL), while for the intracellular samples 30 μL was mixed 1:1 with αMEM and 50 μL was injected. […] All calibration curves were linear (R^2 > 0.999). The column was an Agilent ZORBAX Eclipse (XDB-C18, 5u, 2.1 × 150 mm, Agilent Technologies) with a flow rate of 0.4 mL/min. For SN30000 (2), the mobile phase was a mixture of 80% MeCN/water v/v (A), and a 45 mM formate buffer at a pH 4.5, eluting with a linear gradient of 5–100% A over 18 min. The same method was used for the BTO acids, except for 4a, where the aqueous mobile phase pH was reduced to 3.5.
Values are mean and SEM for 3 replicates. ND: Not detected.

[3] = Solubility in AlphaMEM + 5% FBS, pH 7.4; conditions: culture medium (AlphaMEM + 5% FBS), pH 7.4, plasma or biological fluid, thermodynamic from solid
[4] = One-electron reduction potentials by pulse radiolysis; format: physicochemical; conditions: pH 7.0, equilibrium with redox indicator shown in square brackets
Procedure: One-electron reduction potentials (E^0′) were determined from the redox equilibria with methylviologen, MV^2+, (E^0′ = […], [34]), dimethyldiquat, V21^2+, (E^0′ = […], [35]), or triquat, TQ^2+, (E^0′ = −548 ± 7 mV [34]). […] Substituting the 3-alkanoic sidechain with the 3-aminoalkanoic sidechain on the BTO 1,4-dioxide lowers the E^0′, as does the addition of the cyclopentane ring. The combined effect is seen for 10a, where the E^0′ value is −565 mV, which is expected to be too low for significant bioreduction under hypoxia.
(§1) Time-resolved optical absorption and kinetic studies were carried out using the University of Auckland’s 4 MeV linear accelerator, which has been previously described. The one-electron reduction potentials of the compounds (A) and couple E^0′(A/A^−), versus normal hydrogen electrode, were determined at pH 7.0 (2.5 mM phosphate) by establishing redox equilibria within 50 μs between three mixtures of one-electron reduced A and the viologen reference compounds, MV^2+, TQ^2+ and V21^2+. The determined equilibrium constants were used to calculate the ΔE values using the Nernst equation, correcting for ionic strength effects, as described in the literature.

[5] = Protein binding by equilibrium dialysis (FBS, culture medium); format: in vitro ADME
Procedure: Protein binding of 7a in plasma from NIHIII mice and fetal bovine serum (FBS) assessed
by equilibrium dialysis using a 12-14KDa cut-off dialysis membrane (HTDialysis, Gales Ferry, CT) as
Briefly, 100 µL samples of undiluted plasma,
plasma diluted in PBS, and αMEM with or without FBS containing 7a at 100 μM were dialysed against
100 µL PBS or αMEM (pH 7.4) in an incubator (Innova-42, New Brunswick Scientific, US ) at 37°C
with shaking at 80 rpm for 6 h. Proteins were precipitated with 3 vol of ice-cold MeCN, the

[6] = test system: SiHa and SiHa/POR cells; test: IC50 in SiHa versus SiHa/POR cultures under anoxia; format: cell-based; conditions: 4 h under anoxia, pHe 7.4
Procedure: The lack of effect of POR over-expression on the reductive metabolism of the BTO acids in intact cells led us to compare the cytotoxicities of SN30000 (2), 4a, and 7a in SiHa/POR, and the parental line, under anoxia (Figure 6).
Drug exposure was for 4 h under anoxia, at pHe 7.4, with regrowth under aerobic conditions for 5 days before staining with SRB. Values are means and SEM for the two experiments, each with triplicate cultures at each drug concentration. TEXT PRINTED IN THE PICTURE: Cmpd 2: Ratio 6.75 ± 0.20 | Cmpd 4a: Ratio 3.40 ± 0.22 | Cmpd 7a: Ratio 2.67 ± 0.46

[7] = test system: MDCK-II cells with forced expression of BCRP or Pgp; test: IC50 under anoxia in cells with forced expression of efflux transporters; conditions: MDCK-II cell lines under anoxia, preliminary experiments
Procedure: expression of BCRP or Pgp.
Cells were seeded at 300 cells/well in DMEM with 10% FBS in 96 well plates in an
anaerobic chamber, allowed to attach for 2 h then exposed to drugs for 4 h under anoxia. Cells were
then washed with fresh medium and grown for 5 days under aerobic conditions before staining with
SRB. Values are mean ± SEM from 2 separate experiments.

[8] = Measured pKa (potentiometric titration)
[9] = test system: FaDu cells; test: IC50 assay (inhibition of proliferation, 4 h exposure, SRB); format: cell-based; conditions: for IC50: Homo sapiens, 4 h
[10] = Pulse radiolysis of the radical anion (pKa, decay and oxidation kinetics); format: physicochemical
Source text: The free radical chemistry of 7a was investigated by pulse radiolysis and electron paramagnetic resonance (EPR). […] The radical anion decayed slowly under anoxia at pH 7 with mixed kinetics (first-order rate constant of 78 ± 4 s^−1, second-order rate constant of 3.8 ± 0.7 × 10^7 M^−1 s^−1, Figure S3), broadly similar to SN30000 [24]. The second-order rate constant for oxidation of the radical anion of 7a by O2, 5.39 ± 0.40 × 10^6 M^−1 s^−1 (Figure S4), is consistent with the known dependence on E^0′ for BTOs.
as §1
Molecules 2019, 24, x FOR PEER REVIEW 3 of 8
Figure S2. Effect of pH on the change in radical absorption at 490 nm upon one-electron reduction of 7a ([…]) by the CO2.- radical anion following pulse radiolysis (3 Gy in 200 ns) of N2O-saturated solutions containing sodium formate (0.1 M) and buffers (10 mM). Data points, obtained ca. 20 ms […]
Figure S3. […]
dependence on increasing radiation dose (radical concentration) of the reciprocal of the first half-life of decay of the radical anion of 7a measured at 490 nm. […]
Figure S4. Dependence of the first-order rate constant measured at 490 nm for the decay of the radical anion of 7a at pH 7.0, k, on the concentration of O2 in solution following pulse radiolysis (10 Gy in 200 ns). […] The second order rate constant, kO2, calculated from the gradient

O=C(O)CCc1n[n+]([O-])c2cc3c(cc2[n+]1[O-])CCC3 [Compound 7a, 3-(2-Carboxyethyl)-7,8-dihydro-6H-indeno[5,6-e][1,2,4]triazine 1,4-Dioxide]
IC50 ([1]; read-out: Anoxic IC50, SiHa, pHe 6.5, 4 h, anoxic): 0.428 ± 0.152 mM | IC50 ([1]; read-out: Anoxic IC50, SiHa, pHe 7.4, 4 h, anoxic): 0.864 ± 0.277 mM | IC50 ([1]; read-out: Oxic IC50, SiHa, pHe 6.5, 4 h, oxic): 1.89 ± 0.308 mM | IC50 ([1]; read-out: Oxic IC50, SiHa, pHe 7.4, 4 h, oxic): 3.72 ± 0.83 mM | TMR (overall TME ratio = oxic IC50 pHe 7.4/anoxic IC50 pHe 6.5) [1]: 8.7 ± 3.6 | PCR Anoxic (IC50 at pHe 7.4/IC50 at pHe 6.5) ([1]; anoxic): 2.02 ± 0.97 | PCR oxic (IC50 at pHe 7.4/IC50 at pHe 6.5) ([1]; oxic): 1.97 ± 0.55 | ACR (anoxic cytotoxicity ratio = oxic IC50/anoxic IC50) ([1]; pHe 6.5): 4.41 ± 1.73 | ACR (anoxic cytotoxicity ratio = oxic IC50/anoxic IC50) ([1]; pHe 7.4): 4.31 ± 1.58 | Observed Ci/Ce ratio ([2]; pHe 6.5, approximate value quoted in text): ~ 0.7 | Observed Ci/Ce ratio ([2]; pHe 7.4, approximate value quoted in text): ~ 0.1 | Ci ratio (Ci at pHe 6.5/Ci at pHe 7.4) ([2]; aerobic SiHa suspensions, 5 min): 3.9 ± 1.3 fold | Ci/Ce, pHe 6.5 Obs 5 min ([2]; aerobic SiHa suspensions, pHe 6.5, 5 min): 0.70 ± 0.03 | Ci/Ce, pHe 6.5 Obs 60 min ([2]; aerobic SiHa suspensions, pHe 6.5, 60 min): 0.75 ± 0.03 | Ci/Ce, pHe 7.4 Obs 5 min ([2]; aerobic SiHa suspensions, pHe 7.4, 5 min): 0.21 ± 0.08 | Ci/Ce, pHe 7.4 Obs 60 min ([2]; aerobic SiHa suspensions, pHe 7.4, 60 min): <0.1 | solubility [3]: 24.8 mM | E^0′ one-electron reduction potential [4]: −463 mV and −463 ± 8 [MV^2+, V21^2+] mV | Protein binding in culture medium with 5 or 10% FBS ([5]; 100 μM): not detectable | fraction unbound at 6 h, 100 µM ([5]; bovine, fetal bovine serum (FBS), pH 7.4, FBS, read-out: Protein binding (bound) in FBS (converted)): 0.38 | IC50 ratio SiHa / SiHa/POR (fold lower IC50 in POR cell line) [6]: 2.67 ± 0.46 and 2.7 | Effect of overexpression of BCRP or Pgp efflux transporters on sensitivity [7]: no effect | pKa [8]: 4.16 | TMR (oxic IC50 pHe 7.4/anoxic IC50 pHe 6.5) [9]: >7.9 | IC50 ([9]; pHe 6.5, 4 h, anoxic, read-out: Anoxic IC50): 0.885 ± 0.515 mM | IC50 ([9]; pHe 6.5, 4 h, oxic, read-out: Oxic IC50): 4.91 ± 1.6 mM | IC50 ([9]; pHe 7.4, 4 h, anoxic, read-out: Anoxic IC50): 3.26 ± 1.07 mM | IC50 ([9]; pHe 7.4, 4 h, oxic, read-out: Oxic IC50): > 7 mM | PCR oxic (IC50 at pHe 7.4/IC50 at pHe 6.5) ([9]; oxic): >1.4 | ACR (oxic IC50/anoxic IC50) ([9]; pHe 6.5): 5.55 ± 3.70 | ACR (oxic IC50/anoxic IC50) ([9]; pHe 7.4): > 2 | First-order rate constant of radical anion decay ([10]; anoxia, pH 7): 78 ± 4 s⁻¹ | Second-order rate constant of radical anion decay ([10]; anoxia, pH 7): 3.8 ± 0.7 × 10^7 M^−1 s^−1 | Second-order rate constant for oxidation of the radical anion by O2 ([10]; pH 7.0): 5.39 ± 0.40 × 10^6 M^−1 s^−1

From paper PMC6680510, “Benzotriazine Di-Oxide Prodrugs for Exploiting Hypoxia and Low Extracellular pH in Tumors” (Molecules, 2019)
